In ChEMBL document CHEMBL1201862, “PubChem BioAssay data set” (2004):
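Assay format: 96-well plates, 48-hour exposure. GI50 = concentration required for 50% inhibition of growth.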 Calls of active or inactive are those of the source. No stated cut-off is given here; in the data, active = GI50 up to about 1.1 µM and inactive = higher.

Columns and labels:
Experiment in all cases: DTP human tumour cell line panel, 48 h
786-0 = test system: 786-0
A549 = test system: A549
CCRF-CEM = test system: CCRF-CEM
EKVX = test system: EKVX
HCT-15 = test system: HCT-15
HT-29 = test system: HT-29
KM12 = test system: KM12
MOLT-4 = test system: MOLT-4
Malme-3M = test system: Malme-3M
NCI/ADR-RES = test system: NCI/ADR-RES
OVCAR-3 = test system: OVCAR-3
PC-3 = test system: PC-3
RXF 393 = test system: RXF 393
SK-MEL-28 = test system: SK-MEL-28
SK-OV-3 = test system: SK-OV-3
U-251 = test system: U-251
UACC-257 = test system: UACC-257
UO-31 = test system: UO-31
A498 = test system: A498
SNB-75 = test system: SNB-75

| SMILES | GI50 (786-0) | GI50 (A549) | GI50 (CCRF-CEM) | GI50 (EKVX) | GI50 (HCT-15) [µM] | GI50 (HT-29) | GI50 (KM12) | GI50 (MOLT-4) | GI50 (Malme-3M) | GI50 (NCI/ADR-RES) | GI50 (OVCAR-3) | GI50 (PC-3) | GI50 (RXF 393) | GI50 (SK-MEL-28) | GI50 (SK-OV-3) | GI50 (U-251) | GI50 (UACC-257) | GI50 (UO-31) | GI50 (A498) | GI50 (SNB-75) |
| --- | --- | --- | --- | --- | --- | --- | --- | --- | --- | --- | --- | --- | --- | --- | --- | --- | --- | --- | --- | --- |
| N#Cc1nc(CCCCCN2C(=O)c3ccccc3C2=O)oc1N | > 100 µM (inactive) | > 100 µM (inactive) | 1.91 µM (inactive) | > 100 µM (inactive) | > 100 | > 100 µM (inactive) | > 100 µM (inactive) | 75.7 µM (inactive) | > 100 µM (inactive) | > 100 µM (inactive) | > 100 µM (inactive) | > 100 µM (inactive) | > 100 µM (inactive) | > 100 µM (inactive) | > 100 µM (inactive) | > 100 µM (inactive) | > 100 µM (inactive) | 94.4 µM (inactive) | – | – |
| O=C(NC(CS)C(=O)O)c1cccc2c(=O)c3ccccc3[nH]c12 (stereo unspecified) | > 100 µM (inactive) | > 100 µM (inactive) | – | > 100 µM (inactive) | > 100 | 83.4 µM (inactive) | > 100 µM (inactive) | > 100 µM (inactive) | > 100 µM (inactive) | > 100 µM (inactive) | > 100 µM (inactive) | > 100 µM (inactive) | – | > 100 µM (inactive) | > 100 µM (inactive) | > 100 µM (inactive) | – | > 100 µM (inactive) | > 100 µM (inactive) | > 100 µM (inactive) |
| COc1ccc(/C(Cl)=C/c2ccc(Cl)c(Cl)c2)cc1 | 32.5 µM (inactive) | 22.4 µM (inactive) | 21.9 µM (inactive) | 20.2 µM (inactive) | 23.1 | 18.3 µM (inactive) | – | 16.2 µM (inactive) | 20.9 µM (inactive) | – | – | – | 15.2 µM (inactive) | 38.2 µM (inactive) | 37.8 µM (inactive) | 21.5 µM (inactive) | 24.3 µM (inactive) | 26.5 µM (inactive) | 24.9 µM (inactive) | 28.5 µM (inactive) |
| Cc1cc(C)c(OC(=O)Nc2cccc3ccccc23)c(-c2ccccc2)c1 | 50.5 µM (inactive) | 32.6 µM (inactive) | 22.2 µM (inactive) | 38.3 µM (inactive) | 34.4 | 43.2 µM (inactive) | 28.4 µM (inactive) | 3.81 µM (inactive) | 32.4 µM (inactive) | 26.9 µM (inactive) | 24.5 µM (inactive) | 15.9 µM (inactive) | – | 31.3 µM (inactive) | 67.6 µM (inactive) | 37.8 µM (inactive) | – | 7.52 µM (inactive) | – | 14.5 µM (inactive) |
| Cc1cc2ncc3c(=O)n(NS(=O)(=O)c4ccc(N)cc4)ccc3n2n1 | > 100 µM (inactive) | > 100 µM (inactive) | > 100 µM (inactive) | > 100 µM (inactive) | > 100 | > 100 µM (inactive) | > 100 µM (inactive) | > 100 µM (inactive) | 36.3 µM (inactive) | – | > 100 µM (inactive) | > 100 µM (inactive) | – | > 100 µM (inactive) | > 100 µM (inactive) | > 100 µM (inactive) | > 100 µM (inactive) | > 100 µM (inactive) | 70.8 µM (inactive) | > 100 µM (inactive) |
| CC(C)CCn1c(=O)c2c(=O)[nH][nH]c2c2ccccc21 | > 100 µM (inactive) | > 100 µM (inactive) | > 100 µM (inactive) | > 100 µM (inactive) | > 100 | > 100 µM (inactive) | > 100 µM (inactive) | > 10 µM (inactive) | > 100 µM (inactive) | > 100 µM (inactive) | > 100 µM (inactive) | > 100 µM (inactive) | – | > 100 µM (inactive) | – | > 100 µM (inactive) | > 100 µM (inactive) | > 100 µM (inactive) | > 100 µM (inactive) | > 10 µM (inactive) |
| c1ccc(-c2nnc(CCCCCCCCc3nnc(-c4ccccc4)o3)o2)cc1 | 74 µM (inactive) | 32 µM (inactive) | 52.5 µM (inactive) | > 100 µM (inactive) | > 100 | 45.1 µM (inactive) | 63.8 µM (inactive) | 51.4 µM (inactive) | > 100 µM (inactive) | > 100 µM (inactive) | 65 µM (inactive) | > 100 µM (inactive) | – | > 100 µM (inactive) | > 100 µM (inactive) | 53 µM (inactive) | 42.2 µM (inactive) | > 100 µM (inactive) | 16.1 µM (inactive) | > 100 µM (inactive) |
| O=[N+]([O-])C(=C(Nc1ccccc1)Nc1ccccc1)/C(Cl)=C(\Cl)Br | 16.3 µM (inactive) | 20.7 µM (inactive) | 2.15 µM (inactive) | 14.8 µM (inactive) | 11.9 | 16.2 µM (inactive) | 12.3 µM (inactive) | 3.1 µM (inactive) | 16.5 µM (inactive) | 9.48 µM (inactive) | 5.18 µM (inactive) | 15.6 µM (inactive) | – | 13.6 µM (inactive) | – | 15 µM (inactive) | 14.7 µM (inactive) | 10.1 µM (inactive) | 19.1 µM (inactive) | 12.4 µM (inactive) |
